From BindingDB's records for doi:10.1016/j.bmcl.2006.03.080 (University of Siena, 2006)

Assays:
[1] = Antiviral activity against HIV1 IRLL98 in MT4 cells by MTT assay
[2] = Antiviral activity against HIV1 K103N mutant in MT4 cells by MTT assay
[3] = Antiviral activity against wild type HIV1 NL4-3 in MT4 cells by MTT assay
[4] = Antiviral activity against HIV1 Y188L mutant in MT4 cells by MTT assay
[5] = Antiviral activity against HIV1 Y181C mutant in MT4 cells by MTT assay

Compound	EC50 [1] [µM]	EC50 [2] [µM]	EC50 [3] [µM]	EC50 [4] [µM]	EC50 [5] [µM]
Cc1c(Cc2c(Cl)cccc2Cl)nc(Sc2ccc(F)cc2F)[nH]c1=O	44.7	> 60.5	3.36	> 60.5	
Cc1cn([C@H]2C[C@H](N=[N+]=[N-])[C@@H](CO)O2)c(=O)[nH]c1=O [1-((2R,4S,5S)-4-Azido-5-hydroxymethyl-tetrahydro-furan-2-yl)-5-methyl-1H-pyrimidine-2,4-dione]	0.008	0.003		0.003	
COc1ccc(Sc2nc(Cc3c(F)cccc3F)c(C)c(=O)[nH]2)cc1	> 57.5	> 57.5	0.67	> 57.5	
Cc1c(Cc2c(F)cccc2F)nc(Sc2ccccc2)[nH]c1=O	16.7	42.5	0.09	> 72.7	
COc1ccc(Sc2nc(Cc3c(Cl)cccc3Cl)c(C)c(=O)[nH]2)cc1	> 61.4	> 61.4	26.5	> 61.4	> 61.4
COc1ccc(Sc2nc(Cc3c(Cl)cccc3Cl)c(C)c(=O)[nH]2)cn1	8.68	> 61.7	2.72	> 61.3	6.52
Cc1c(Cc2c(F)cccc2F)nc(Sc2ccc(Cl)cc2)[nH]c1=O	> 66.1	8.01	0.1	> 66.1	
Cc1c(Cc2c(Cl)cccc2Cl)nc(Sc2ccccc2)[nH]c1=O	4.91	> 66.3	1.8	> 66.3	12.1
Cc1c(Cc2c(F)cccc2F)nc(Sc2ccc(F)cc2F)[nH]c1=O	25.8	> 65.8	0.31	> 65.8	
Cc1c(Cc2c(Cl)cccc2Cl)nc(Sc2ccc(C#N)cc2)[nH]c1=O	> 27.6	> 27.6	2.49	> 27.6	5.1
